Structures are written as SMILES.

What all share (format): cell-based, mouse
The test system of assay [1] is pancreatic β-cells. Description: Ca2+-induced exocytosis, whole-cell capacitance recordings. How it is done:
FIG. 8A, Representative increases in cell capacitance (ΔC), reflecting exocytosis (as is described in Barg et al., J. Cell Sci 114: 2145-2154 (2001)), elicited by intracellular perfusion with intracellular solution (0.4 μM [Ca^2+]free), containing either 0 (“control”) or 10 μM Ins(3,4,5,6)P4. FIG. 8B, Average rates of capacitance increase (ΔC/Δt) during the first minute of recording, as described for FIG. 8A, in 5-17 experiments. FIG. 8C, Representative increases in ΔC, measured under the same conditions as in FIG. 8A, except that the [Ca^2+]free was 1.5 μM. FIG. 8D, Average rates of capacitance increase (ΔC/Δt) during the first minute of recording, as described for FIG. 8C, in 6-11 experiments.
The inositol phosphates used in this study were all purchased from CellSignals Inc (Lexington, Ky.). Insulin granule pH were monitored by combining the patch-clamp technique with confocal imaging. Pancreatic β-cells, isolated and cultured on glass coverslips for 2-24 h, were voltage clamped at −70 mV, as previously described (B9). LysoSensor-Green™ DND-189 (1 μM; Molecular Probes, Leiden, The Netherlands) was added during the last 30 min of cell culture and was also included in the extracellular buffer (B9) that continuously perfused the experimental chamber. All LSG experiments were performed at 20° C. to prevent exocytosis that otherwise interfered with the optical measurements (15). LSG fluorescence was excited using the 488 nm-line of a Zeiss 510 confocal microscope. The emitted light was collected with a 63×/1.3 NA oil objective and a >505 nm filter. Laser scanning was performed with low pixel resolution (128×128) and with 6 s intervals to minimize photo-bleaching. After gigaseal formation, it was ascertained that LSG fluorescence was stable for at least 30 s before the experiment commenced. The intracellular electrode solution contained: 125 mM K-glutamate, 10 mM KCl, 1 0 mM NaCl, 1 mM MgCl2, 5 mM HEPES, 3 mM Mg-ATP, 0.1 mM cAMP, 10 mM EGTA and 7 mM CaCl2 (˜0.4 μM free [Ca^2+]I; pH 7.2 with KOH). In some experiments, marked “no calcium”, there was no added Ca^2+, and the concentration of EGTA was 50 μM. Whole-cell capacitance measurements (at 33° C.) were made with the cells clamped at −70 mV, and the standard whole-cell configuration was established at t=0. […]
The degree of insulin granule acidification in pancreatic β-cells has been proposed to affect their fusogenic potential, thereby influencing the rate of insulin secretion by exocytosis (B9;B16). So we next investigated if the interaction of Ins(3,4,5,6)P4 with insulin granule Cl^− channels affected exocytosis, which we recorded by monitoring capacitance of β-cells with the whole-cell patch-clamp technique (B16). […]

In assay [2] the test system is insulin granules in pancreatic β-cells. Description: CCCP-mediated de-acidification of insulin granules, LSG fluorescence. The procedure: FIG. 7A, Representative confocal images of LSG fluorescence immediately before (zero) and 60 s after perfusion of cells with intracellular buffer supplemented with 100 μM of the protonophore, CCCP, in the absence or presence of 10 μM Ins(3,4,5,6)P4. FIG. 7B, Representative time-courses for changes in LSG-fluorescence ([F/F0] as % of zero time) immediately after establishing a standard whole-cell configuration as in panel A, with intracellular medium (containing 0.4 μM [Ca^2+]free except where “no calcium” is indicated; see Methods) plus 100 μM CCCP, together with either 0 (“control”) or 10 μM Ins(3,4,5,6)P4. FIG. 7C, Mean (±SE) fluorescence changes (n=4-6), during the 60 s that followed establishment of the standard whole-cell configuration, for cells perfused with intracellular medium supplemented with inositol phosphates as indicated at the base of the bar graph ([…]).
The inositol phosphates used in this study were all purchased from CellSignals Inc (Lexington, Ky.). Insulin granule pH were monitored by combining the patch-clamp technique with confocal imaging. Pancreatic β-cells, isolated and cultured on glass coverslips for 2-24 h, were voltage clamped at −70 mV, as previously described (B9). LysoSensor-Green™ DND-189 (1 μM; Molecular Probes, Leiden, The Netherlands) was added during the last 30 min of cell culture and was also included in the extracellular buffer (B9) that continuously perfused the experimental chamber. All LSG experiments were performed at 20° C. to prevent exocytosis that otherwise interfered with the optical measurements (15). LSG fluorescence was excited using the 488 nm-line of a Zeiss 510 confocal microscope. The emitted light was collected with a 63×/1.3 NA oil objective and a >505 nm filter. Laser scanning was performed with low pixel resolution (128×128) and with 6 s intervals to minimize photo-bleaching. After gigaseal formation, it was ascertained that LSG fluorescence was stable for at least 30 s before the experiment commenced. The intracellular electrode solution contained: 125 mM K-glutamate, 10 mM KCl, 1 0 mM NaCl, 1 mM MgCl2, 5 mM HEPES, 3 mM Mg-ATP, 0.1 mM cAMP, 10 mM EGTA and 7 mM CaCl2 (˜0.4 μM free [Ca^2+]I; pH 7.2 with KOH). In some experiments, marked “no calcium”, there was no added Ca^2+, and the concentration of EGTA was 50 μM. Whole-cell capacitance measurements (at 33° C.) were made with the cells clamped at −70 mV, and the standard whole-cell configuration was established at t=0. Capacitance recordings were made using an EPC-7 patch-clamp amplifier equipped with the software Pulse (version 8.4 and later) and the X-chart extension (HEKA Elektronik, Lambrecht/Pfalz, Germany) (B9). […]

The test system is the same in assay [3]. Description: Insulin granule acidification, LSG fluorescence with patch-clamp and confocal imaging. The procedure:
FIG. 6. Ins(3,4,5,6)P4 inhibits acidification of insulin granules in pancreatic β-cells. FIG. 6A, Representative time-courses for intragranular acidification, monitored by increased fluorescence of LSG before and after establishment of the standard whole-cell configuration (see arrow) and the effect of perfusion of intracellular medium (containing 0.4 μM [Ca^2+]free except where “no calcium” is indicated; see Methods) plus either 0 (“control”), 1 or 10 μM Ins(3,4,5,6)P4. FIG. 6B, Mean (±SE) fluorescence changes (n-5-11), during the 60 s that followed establishment of the standard whole-cell configuration, for cells perfused with inositol phosphates as indicated at the base of the bar graph. Where indicated, DIDS (100 μM) were added to the bath solution 30 min prior to patching the cells. Statistical significance was evaluated by Student's unpaired t-test (* P<0.01).
The inositol phosphates used in this study were all purchased from CellSignals Inc (Lexington, Ky.). Insulin granule pH were monitored by combining the patch-clamp technique with confocal imaging. Pancreatic β-cells, isolated and cultured on glass coverslips for 2-24 h, were voltage clamped at −70 mV, as previously described (B9). LysoSensor-Green™ DND-189 (1 μM; Molecular Probes, Leiden, The Netherlands) was added during the last 30 min of cell culture and was also included in the extracellular buffer (B9) that continuously perfused the experimental chamber. All LSG experiments were performed at 20° C. to prevent exocytosis that otherwise interfered with the optical measurements (15). LSG fluorescence was excited using the 488 nm-line of a Zeiss 510 confocal microscope. The emitted light was collected with a 63×/1.3 NA oil objective and a >505 nm filter. Laser scanning was performed with low pixel resolution (128×128) and with 6 s intervals to minimize photo-bleaching. After gigaseal formation, it was ascertained that LSG fluorescence was stable for at least 30 s before the experiment commenced. The intracellular electrode solution contained: 125 mM K-glutamate, 10 mM KCl, 1 0 mM NaCl, 1 mM MgCl2, 5 mM HEPES, 3 mM Mg-ATP, 0.1 mM cAMP, 10 mM EGTA and 7 mM CaCl2 (˜0.4 μM free [Ca^2+]I; pH 7.2 with KOH). In some experiments, marked “no calcium”, there was no added Ca^2+, and the concentration of EGTA was 50 μM. Whole-cell capacitance measurements (at 33° C.) were made with the cells clamped at −70 mV, and the standard whole-cell configuration was established at t=0. Capacitance recordings were made using an EPC-7 patch-clamp amplifier equipped with the software Pulse (version 8.4 and later) and the X-chart extension (HEKA Elektronik, Lambrecht/Pfalz, Germany) (B9).

As for `O=P(O)(O)OC1[C@@H](OP(=O)(O)O)[C@H](OP(=O)(O)O)C(O)[C@H](OP(=O)(O)O)[C@H]1OP(=O)(O)O` (stereo partly shown) [Ins(1,3,4,5,6)P5, inositol 1,3,4,5,6-pentakisphosphate], in assay [1] (100 μM, 0.4 μM [Ca2+]free), the effect on exocytosis result is on record as “no effect”. In assay [2] (100 μM, 100 μM CCCP), the “effect on rate of CCCP-promoted H+ efflux out of the granule” value is “no effect”. Moreover, the “effect on vesicle acidification” value in assay [3] (100 μM) is “neither 100 μM Ins(1,4,5,6)P4 nor 100 μM Ins(1,3,4,5,6)P5 affected”.
Turning to `O=P(O)(O)OC1C(O)C(O)C(OP(=O)(O)O)C(OP(=O)(O)O)C1OP(=O)(O)O` (stereo not shown) [Ins(3,4,5,6)P4, inositol 3,4,5,6-tetrakisphosphate], the effect on exocytosis entry in assay [1] (1 μM, 0.4 μM [Ca2+]free) was “ineffective”. Besides, the “effect on rate of exocytosis” value in assay [1] (1.5 μM [Ca2+]free) is “did not affect”. The compound also had an inhibition at 10 µM in assay [1] (Mus musculus, 10 μM, 0.4 μM [Ca2+]free) of about 50%. Moreover, in assay [2] (1 μM (resting level)), the “effect on CCCP-induced collapse of the pH gradient” value was “failed to affect”. In assay [2] (10 μM, 100 μM CCCP), the “effect on CCCP-induced H+ flux” value was “inhibitory effect”. The “effect on granule acidification” value in assay [3] (1 μM (resting level)) was “ineffective”. Further, the “reduction of the rate of acidification of the granular interior” value in assay [3] (10 μM perfused into the cell, 0.4 μM [Ca2+]free) was “approximately 65%”.

The values above are taken from patent US20060035810A1, “Regulation of ins(3456)p4 signalling by a reversible kinase phosphatase and methods and compositions related thereto” (priority 2002, published 2006).
